Data taken from patent publication US20040248869A1, “Method for finding novel active ingredients having androgen-type properties” (priority 2001, published 2004).

Key:
genital fibroblasts = conditions: Loire et al., Sultan et al.; cited from earlier work
male adult fibroblasts = male adult fibroblasts (cultures 2-6); increase based on the blank value; average of the two measuring conditions
Description: The process may be carried out, for example, as follows: cell suspensions of human fibroblasts (embryonal cells of adult male origin) are mixed with 1 to 2 mg/ml of a collagen suspension. […] After incubation for 7 days at 27° C./5% by volume carbon dioxide in a steam-saturated atmosphere, biopsies are taken and histological sections prepared. The quantity of macromolecules formed can be determined by two different methods:
1. a general determination by coloring the glucosaminoglucans (GAGs) with PAS Alcian Blue (standard coloration) and
2. a specific immunohistochemical characterization of certain elements of the matrix by treatment with antibodies, more especially anti-chondroitin sulfate, anti-keratan sulfate, anti-heparan sulfate, anti-dermatan sulfate, anti-elastin and anti-collagen (type III).
The fibroblasts are examined with a photon microscope in regard to the coloration (PAS Alcian) and with a confocal laser microscope in regard to the immunohistology. In order to determine the quantity of dermal macromolecules formed, micrographs are taken and the zones around the fibroblasts (“perifibroblastic zones”) are analyzed. Counting is done by image analysis, i.e. by determining the perifibroblastic zones and the gray level. Both parameters are directly proportional to the synthesis of dermal macromolecules. The results are evaluated in relation to the corresponding results without addition of the active components.
The numbers represent the increase in %-rel., based on the blank value, i.e. the absence of the male sex hormones, and expressed as the average of the two measuring conditions.

embryonal fibroblasts = assay: Synthesis of dermal macromolecules in fibroblast cultures in collagen gel (embryonal fibroblasts); type: cell-based, human; conditions: increase based on the blank value (absence of hormone), average of the two measuring conditions
human skin cells = conditions: differentiation of human skin cells; cited from earlier work
epidermis = conditions: topical application, axillae of relatively old males; Kligman et al.; cited from earlier work

C[C@]12CCC(=O)C[C@@H]1CC[C@@H]1[C@@H]2CC[C@]2(C)[C@@H](O)CC[C@@H]12 [DHT, dihydrotestosterone]
DNA or protein distribution in the target cell (genital fibroblasts): does not affect
Increase in the synthesis of macromolecules: Elastin (male adult fibroblasts): +552 %-rel.
Increase in the synthesis of macromolecules: Heparan sulfate (male adult fibroblasts): +486 %-rel.

C[C@]12CC[C@H]3[C@@H](CCC4=CC(=O)CC[C@@]43C)[C@@H]1CC[C@@H]2O [T (soluble), testosterone]
Increase in the synthesis of macromolecules: Chondroitin sulfate (embryonal fibroblasts): +23 %-rel.
Increase in the synthesis of macromolecules: Collagen (embryonal fibroblasts): +17 %-rel.
Increase in the synthesis of macromolecules: Elastin (embryonal fibroblasts): +11 %-rel.

C[C@]12CC[C@H]3[C@@H](CCC4=CC(=O)CC[C@@]43C)[C@@H]1CC[C@@H]2O [T, testosterone]
reduction of granular cells, keratohyalin granules and keratinosomes (human skin cells): does counteract the reduction
Increase in the synthesis of macromolecules: Chondroitin sulfate (male adult fibroblasts): +537 %-rel.
Increase in the synthesis of macromolecules: Elastin (male adult fibroblasts): +2753 %-rel.
Increase in the synthesis of macromolecules: Keratan sulfate (male adult fibroblasts): +83 %-rel.

CCC(=O)O[C@H]1CC[C@H]2[C@@H]3CCC4=CC(=O)CC[C@]4(C)[C@H]3CC[C@]12C [testosterone propionate]
strength of the epidermis (epidermis): increases the strength of the epidermis
